Results: paper PMC11591096, “Hit Identification and Functional Validation of Novel Dual Inhibitors of HDAC8 and Tubulin Identified by Combining Docking and Molecular Dynamics Simulations” (Antioxidants, 2024)

Target: T1, HDAC8 (Homo sapiens, UniProt Q9BY41)
T1 construct: purchased enzyme (VinciBiochem)
T1 sequence (Q9BY41 1-377): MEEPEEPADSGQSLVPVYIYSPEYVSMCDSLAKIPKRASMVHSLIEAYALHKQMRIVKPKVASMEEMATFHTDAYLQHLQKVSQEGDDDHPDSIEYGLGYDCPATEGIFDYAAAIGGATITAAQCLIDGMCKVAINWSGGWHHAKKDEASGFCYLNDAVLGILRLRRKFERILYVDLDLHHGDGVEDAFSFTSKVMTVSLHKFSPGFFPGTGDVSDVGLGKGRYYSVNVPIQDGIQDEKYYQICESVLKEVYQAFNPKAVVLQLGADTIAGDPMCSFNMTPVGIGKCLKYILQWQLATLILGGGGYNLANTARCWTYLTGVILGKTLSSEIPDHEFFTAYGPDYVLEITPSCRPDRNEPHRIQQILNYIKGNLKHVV
Assay: HDAC-Glo I/II bioluminogenic deacetylase assay
Assay type: biochemical
Conditions: read-out: HDAC8IC50 (μM) ^a
Source text: HDAC-Glo I/II bioluminogenic deacetylase assay on HDAC8

`Cc1cc(OCC(=O)N2CCC(C(N)=O)CC2)c2c(C)c(Cc3ccccc3)c(=O)oc2c1` [CNP0217284] gave an IC50 greater than 300 µM.
